Test systems include A549 NSCLC; OVCAR-4 ovarian; 786-0 renal; SF-268 CNS; CAKI-1 renal; IGROV1 ovarian; SF-295 CNS; HCT-15 colon; PC-3 prostate; MDA-MB-231 breast.
Common to all, as to assay: growth of human tumour cells (NCI), 48 h

Our source for the TGI values is PubChem BioAssay (NCI).

The structures appear in SMILES notation.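 96-well plates; 48 h exposure; 5 concentrations. Endpoints by linear interpolation between flanking doses. Not reached: highest tested concentration assigned. At the TGI there is no net growth.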

With `CCC(=O)OC1CCn2c1nc1c2C(=O)C(C)=C(NC(C)=O)C1=O` (stereo not drawn), the TGI with A549 NSCLC is 3.62 µM; with OVCAR-4 ovarian it was 1.67 µM; in the assay on 786-0 renal, 11.9 µM; in the assay with SF-268 CNS it was 3.2 µM; in the assay with CAKI-1 renal, 3.61 µM; in the assay on IGROV1 ovarian, 3.98 µM. The molecule also had a TGI in the assay on SF-295 CNS of 4.53 µM.

Take `COC(CNC(=O)CNC(=O)c1ccc(C(F)(F)F)cc1)OC`: the TGI in the assay on A549 NSCLC, in the assay with 786-0 renal, in the assay with SF-268 CNS, with CAKI-1 renal, in the assay on HCT-15 colon and in the assay on PC-3 prostate was greater than 100 µM in each case. Besides, the TGI in the assay with IGROV1 ovarian, in the assay on MDA-MB-231 breast and in the assay with SF-295 CNS was greater than 100 µM each time.

With `CCOC(=O)c1c(N2CCCC2)[nH]c(=O)c(C(c2c(O)c(C(=O)OCC)c(N3CCCC3)[nH]c2=O)C(C)C)c1O`, the TGI in the assay on A549 NSCLC, in the assay on OVCAR-4 ovarian, with 786-0 renal, in the assay on SF-268 CNS, with CAKI-1 renal and in the assay on HCT-15 colon was greater than 100 µM throughout. The values for the TGI with PC-3 prostate, in the assay with MDA-MB-231 breast and with SF-295 CNS were greater than 100 µM, 64.3 µM and greater than 100 µM, respectively.

Turning to `CC1CC(=O)Nc2ccc(Cl)cc2N1C(=O)CN1CCC(CCCCN(C)C)CC1` (stereo not drawn), the TGI in the assay on A549 NSCLC, in the assay on OVCAR-4 ovarian, with 786-0 renal, in the assay on SF-268 CNS, with CAKI-1 renal and in the assay on HCT-15 colon was greater than 100 µM in each case. In addition, the TGI in the assay on IGROV1 ovarian and in the assay with SF-295 CNS was greater than 100 µM each time.

With `CC(=O)Nc1ccc(-c2nnc(SCC(=O)Nc3cccc(C)c3)o2)cc1`, the TGI in the assay with A549 NSCLC is 68.6 µM; in the assay with OVCAR-4 ovarian, 29.8 µM; with 786-0 renal, 26.4 µM; with SF-268 CNS it was greater than 100 µM; with CAKI-1 renal, 30.4 µM; in the assay on HCT-15 colon, 21.6 µM. The TGI was determined as 24.7 µM with IGROV1 ovarian and 22.9 µM in the assay on SF-295 CNS.

In the case of `CCCCn1c(-c2ccccc2)cs/c1=N\N=C1C=C(C(C)(C)C)C(=O)C(C(C)(C)C)=C1`, the TGI with A549 NSCLC, in the assay with OVCAR-4 ovarian, in the assay with 786-0 renal, in the assay on SF-268 CNS, with CAKI-1 renal and in the assay with HCT-15 colon was greater than 100 µM each time. In addition, the TGI with IGROV1 ovarian and in the assay on SF-295 CNS was greater than 100 µM in each case.

With `CCOC(=O)COc1cc(-c2ccccc2F)nc2cc3c(cc12)OCO3`, the TGI in the assay with A549 NSCLC, in the assay on 786-0 renal, with SF-268 CNS, with CAKI-1 renal, with HCT-15 colon and with PC-3 prostate was greater than 100 µM each time. The TGI in the assay on IGROV1 ovarian, in the assay with MDA-MB-231 breast and with SF-295 CNS was greater than 100 µM throughout.

Regarding `O=C1c2ccccc2N=C(c2cc3c(cc2Cl)Sc2nccn2S3(=O)=O)OS(=O)(=O)N1c1ccccc1`, the TGI is greater than 100 µM with A549 NSCLC; greater than 100 µM with OVCAR-4 ovarian; greater than 100 µM with 786-0 renal; greater than 100 µM in the assay on SF-268 CNS; greater than 100 µM with CAKI-1 renal; 50.8 µM in the assay on HCT-15 colon. The TGI was greater than 100 µM with PC-3 prostate, 56.2 µM in the assay with MDA-MB-231 breast and 42.4 µM in the assay on SF-295 CNS.

In the case of `CN(C)CCCNC(=O)N/N=C/c1ccc(O)cc1`, the TGI in the assay on A549 NSCLC, with 786-0 renal, in the assay with SF-268 CNS, in the assay with CAKI-1 renal, in the assay on HCT-15 colon and with PC-3 prostate was greater than 100 µM each time. Also, the TGI in the assay with IGROV1 ovarian, in the assay with MDA-MB-231 breast and with SF-295 CNS was greater than 100 µM in each case.

On to `CC(=O)O[C@@H]1[C@H](OC2CCCCC2(c2ccccc2)c2ccccc2)O[N+]([O-])=CC12CCCCC2` (stereo partly drawn), for which the TGI is 31.6 µM in the assay with A549 NSCLC; 26.2 µM in the assay on 786-0 renal; 34.6 µM in the assay with SF-268 CNS; 27.5 µM in the assay on CAKI-1 renal; 30.7 µM in the assay on HCT-15 colon; 22.6 µM in the assay with PC-3 prostate. Also, the TGI in the assay on IGROV1 ovarian stood at 41.4 µM; with MDA-MB-231 breast, 30 µM; with SF-295 CNS, 29.2 µM.

For the molecule `O=C(NN1C(=O)C(Cl)C1c1cccc(O)c1)c1ccccc1O` (stereo not drawn), the TGI in the assay with A549 NSCLC, with OVCAR-4 ovarian, in the assay on SF-268 CNS, with HCT-15 colon, in the assay on IGROV1 ovarian and in the assay on SF-295 CNS was greater than 100 µM each time.

`O=c1oc2cc(O)ccc2c2[nH]c3cc(O)ccc3c12`: the TGI with A549 NSCLC was greater than 100 µM; with OVCAR-4 ovarian, 99.6 µM; with 786-0 renal, greater than 100 µM; with SF-268 CNS it was 64.8 µM; in the assay with HCT-15 colon it was 81.8 µM; in the assay on IGROV1 ovarian it was 57.9 µM. Further, in the assay on SF-295 CNS, the TGI was greater than 100 µM.

`Cc1ccc(S(=O)(=O)NC(=O)C2S(=O)(=O)OCCOS2(=O)=O)cc1`: the TGI in the assay with A549 NSCLC, with OVCAR-4 ovarian, in the assay on 786-0 renal, in the assay with SF-268 CNS, with CAKI-1 renal and with SF-295 CNS was greater than 100 µM in each case.

`Cc1ccc(S(=O)(=O)N(CC(O)COc2ccccc2)c2c(F)c(F)cc(F)c2F)cc1` (stereo not drawn): the TGI amounted to 72.8 µM with A549 NSCLC; 52 µM in the assay with OVCAR-4 ovarian; 58 µM in the assay with 786-0 renal; 38.2 µM in the assay on SF-268 CNS; 37.1 µM with CAKI-1 renal; 52 µM in the assay with HCT-15 colon. Besides, the TGI is 45 µM in the assay on PC-3 prostate, 50.8 µM with MDA-MB-231 breast and 62 µM in the assay on SF-295 CNS.

For `CCN(CC)CC1CCCCN1CC(=O)N1c2cc(Cl)ccc2NC(=O)CC1C` (stereo not drawn), the TGI in the assay on A549 NSCLC, with OVCAR-4 ovarian, in the assay with 786-0 renal, in the assay on SF-268 CNS and in the assay on CAKI-1 renal was greater than 100 µM in each case.
